US9539260B2, “Dihydro-benzo-oxazine and dihydro-pyrido-oxazine derivatives” (Novartis AG, priority 2012, dated 2017)

Columns and labels:
[1] = molecular target: PI3K alpha (Homo sapiens (Human), UniProt P42336); experiment: Enzymatic PI3K alpha isoform inhibition (lipid kinase activity, Kinase-Glo luminescence); format: biochemical; conditions: Enzymatic assay
Description: (§1) 1.1 Test of Lipid Kinase Activity […]
(§2) In a more preferred assay, the kinase reaction is performed in a final volume of 10 μl per well of a low volume non-binding CORNING, 384 well black plate (Cat. No. #3676). The final concentrations of ATP and phosphatidyl inositol (PI) in the assay are 1 μM and 10 μg/mL, respectively. The reaction is started by the addition of ATP.
(§3) The components of the assay are added per well as follows:
(§4) The Z′ value is a universal measurement of the robustness of an assay. A Z′ between 0.5 and 1.0 is considered an excellent assay.
(§5) IC50 is determined by a four parameter curve fitting routine that comes along with “excel fit”. A four parameter logistic equation is used to calculate IC50 values (IDBS XLfit) of the percentage inhibition of each compound at 8 concentrations (usually 10, 3.0, 1.0, 0.3, 0.1, 0.030, 0.010 and 0.003 μM). Alternatively, IC50 values are calculated using idbsXLfit model 204, which is a 4 parameter logistic model.
(§6) Yet alternatively, for an ATP depletion assay, compounds of the formula I to be tested are dissolved in DMSO and directly distributed into a white 384-well plate at 0.5 μl per well. To start the reaction, 10 μl of 10 nM PI3 kinase and 5 μg/mL 1-alpha-phosphatidylinositol (PI) are added into each well followed by 10 μl of 2 μM ATP. The reaction is performed until approx 50% of the ATP is depleted, and then stopped by the addition of 20 μl of Kinase-Glo solution (Promega Corp., Madison, Wis., USA). The stopped reaction is incubated for 5 minutes and the remaining ATP is then detected via luminescence. IC50 values are then determined.

[2] = molecular target: PI3K delta (Homo sapiens (Human), UniProt O00329); experiment: Enzymatic PI3K delta isoform inhibition (lipid kinase activity, Kinase-Glo luminescence); format: biochemical; conditions: Enzymatic assay
Sequence of PI3K delta (O00329 other isoform, or with tags, fused parts or gaps linker GGGGGG): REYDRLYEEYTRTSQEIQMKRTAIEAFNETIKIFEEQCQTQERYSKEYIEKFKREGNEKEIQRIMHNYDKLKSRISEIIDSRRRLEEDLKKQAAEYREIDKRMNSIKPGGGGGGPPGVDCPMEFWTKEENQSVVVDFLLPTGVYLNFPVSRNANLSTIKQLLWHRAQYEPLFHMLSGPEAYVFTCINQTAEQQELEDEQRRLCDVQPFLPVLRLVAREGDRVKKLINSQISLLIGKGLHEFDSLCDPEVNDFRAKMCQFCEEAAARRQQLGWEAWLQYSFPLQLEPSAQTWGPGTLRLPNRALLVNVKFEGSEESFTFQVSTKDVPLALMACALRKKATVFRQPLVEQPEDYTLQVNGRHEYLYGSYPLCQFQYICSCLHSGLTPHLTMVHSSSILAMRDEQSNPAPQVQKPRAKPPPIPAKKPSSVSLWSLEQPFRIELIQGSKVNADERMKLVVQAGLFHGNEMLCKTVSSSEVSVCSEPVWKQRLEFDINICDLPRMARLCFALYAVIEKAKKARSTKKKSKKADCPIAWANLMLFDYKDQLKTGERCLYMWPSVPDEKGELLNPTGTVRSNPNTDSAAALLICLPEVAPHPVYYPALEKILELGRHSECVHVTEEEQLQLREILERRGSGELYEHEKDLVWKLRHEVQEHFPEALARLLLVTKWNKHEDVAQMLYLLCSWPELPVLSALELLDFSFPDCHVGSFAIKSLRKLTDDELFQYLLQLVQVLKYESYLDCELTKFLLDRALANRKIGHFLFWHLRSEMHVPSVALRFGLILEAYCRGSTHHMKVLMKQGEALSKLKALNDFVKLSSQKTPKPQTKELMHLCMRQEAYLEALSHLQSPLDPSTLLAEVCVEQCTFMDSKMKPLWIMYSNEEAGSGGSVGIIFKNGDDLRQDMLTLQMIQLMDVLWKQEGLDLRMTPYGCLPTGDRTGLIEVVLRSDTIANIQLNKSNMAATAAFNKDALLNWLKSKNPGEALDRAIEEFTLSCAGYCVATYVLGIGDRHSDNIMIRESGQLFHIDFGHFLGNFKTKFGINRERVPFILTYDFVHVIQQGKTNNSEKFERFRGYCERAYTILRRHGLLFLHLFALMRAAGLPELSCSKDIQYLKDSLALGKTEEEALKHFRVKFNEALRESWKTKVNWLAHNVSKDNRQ
Description: as §1, §2, §3, §4, §5, §6

Sequence of PI3K alpha (P42336 other isoform, or with tags, fused parts or gaps): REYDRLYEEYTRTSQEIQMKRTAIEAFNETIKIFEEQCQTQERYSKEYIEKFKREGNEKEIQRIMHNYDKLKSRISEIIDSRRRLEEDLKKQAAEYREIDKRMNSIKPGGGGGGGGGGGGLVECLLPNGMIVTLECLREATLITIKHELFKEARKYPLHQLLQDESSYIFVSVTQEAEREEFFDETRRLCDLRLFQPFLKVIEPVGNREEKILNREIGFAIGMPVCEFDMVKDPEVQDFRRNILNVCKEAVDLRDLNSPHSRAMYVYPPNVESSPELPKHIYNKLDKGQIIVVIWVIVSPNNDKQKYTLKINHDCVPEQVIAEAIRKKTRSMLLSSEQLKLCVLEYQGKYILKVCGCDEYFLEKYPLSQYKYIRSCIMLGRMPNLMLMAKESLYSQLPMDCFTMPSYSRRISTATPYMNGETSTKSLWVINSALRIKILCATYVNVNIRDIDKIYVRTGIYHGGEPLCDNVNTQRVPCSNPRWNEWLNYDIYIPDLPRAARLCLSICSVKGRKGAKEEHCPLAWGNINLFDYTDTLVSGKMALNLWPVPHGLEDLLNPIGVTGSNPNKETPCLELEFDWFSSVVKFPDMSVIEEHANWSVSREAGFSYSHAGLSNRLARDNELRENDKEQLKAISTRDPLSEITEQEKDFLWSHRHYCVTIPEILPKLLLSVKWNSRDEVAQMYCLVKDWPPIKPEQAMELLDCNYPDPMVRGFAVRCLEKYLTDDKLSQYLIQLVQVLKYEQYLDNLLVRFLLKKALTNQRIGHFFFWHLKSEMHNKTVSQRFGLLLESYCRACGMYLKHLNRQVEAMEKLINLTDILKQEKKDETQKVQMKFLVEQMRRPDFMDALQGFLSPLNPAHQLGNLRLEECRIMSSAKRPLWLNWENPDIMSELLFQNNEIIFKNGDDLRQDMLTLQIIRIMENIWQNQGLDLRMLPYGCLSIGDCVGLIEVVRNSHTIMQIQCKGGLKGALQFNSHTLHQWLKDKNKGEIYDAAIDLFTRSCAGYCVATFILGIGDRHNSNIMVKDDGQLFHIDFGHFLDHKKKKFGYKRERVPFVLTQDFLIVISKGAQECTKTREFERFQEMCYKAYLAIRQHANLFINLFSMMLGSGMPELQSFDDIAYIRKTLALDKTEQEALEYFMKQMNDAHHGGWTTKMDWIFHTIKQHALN

Row | IC50 [1] [µM] | IC50 [2] [µM] | Structure (SMILES)
1 | 0.039 | < 0.003 | COc1ncc(N2CCOc3cnc(O[C@H]4CCN(C(=O)c5cn(C)cn5)C4)cc32)cc1C(F)F [Example F10, {(S)-3-[1-(5-Difluoromethyl-6-methoxy-pyridin-3-yl)-2,3-dihydro-1H-pyrido[3,4-b][1,4]oxazin-7-yloxy]-pyrrolidin-1-yl}-(1-methyl-1H-imidazol-4-yl)-methanone]
2 | 1.39 | 0.027 | Cc1cc(N2CCOc3ccc(O[C@H]4CCN(C(=O)C5CCS(=O)(=O)C5)C4)cc32)cnc1S(C)(=O)=O (stereo partly drawn) [Example B35, (1,1-Dioxo-tetrahydro-1lambda*6*-thiophen-3-yl)-{(S)-3-[4-(6-methanesulfonyl-5-methyl-pyridin-3-yl)-3,4-dihydro-2H-benzo[1,4]oxazin-6-yloxy]-pyrrolidin-1-yl}-methanone]
3 | 0.425 | 0.012 | COc1ncc(N2CCOc3ccc(O[C@H]4CCN(C(=O)c5cn(C)nc5C)C4)cc32)cc1C#N [Example C18, 5-{6-[(S)-1-(1,3-Dimethyl-1H-pyrazole-4-carbonyl)-pyrrolidin-3-yloxy]-2,3-dihydro-benzo[1,4]oxazin-4-yl}-2-methoxy-nicotinonitrile]
4 | 0.241 | 0.0107 | COc1cc(N2CCOc3ccc(O[C@H]4CCN(C(=O)C5CCS(=O)(=O)CC5)C4)cc32)cnc1OC [Example B47, {(S)-3-[4-(5,6-Dimethoxy-pyridin-3-yl)-3,4-dihydro-2H-benzo[1,4]oxazin-6-yloxy]-pyrrolidin-1-yl}-(1,1-dioxo-hexahydro-1lambda*6*-thiopyran-4-yl)-methanone]
5 | 0.166 | 0.003 | COc1cc(N2CCOc3ccc(O[C@H]4CCN(C(=O)C5CCOCC5)C4)cc32)cnc1OC [Example B38, {(S)-3-[4-(5,6-Dimethoxy-pyridin-3-yl)-3,4-dihydro-2H-benzo[1,4]oxazin-6-yloxy]-pyrrolidin-1-yl}-(tetrahydro-pyran-4-yl)-methanone]
6 | > 9.1 | – | CCC(=O)N1CC[C@H](Oc2ccc3c(c2)N(c2ccnc(C#N)c2)CCO3)C1 [Example B3, 4-[6-((S)-1-Propionyl-pyrrolidin-3-yloxy)-2,3-dihydro-benzo[1,4]oxazin-4-yl]-pyridine-2-carbonitrile]
7 | 0.234 | – | COc1ncc(N2CCOc3ccc(O[C@H]4CCN(C(=O)CN5CCOCC5)C4)cc32)cc1C#N [Example D7, 2-Methoxy-5-{6-[(S)-1-(2-morpholin-4-yl-acetyl)-pyrrolidin-3-yloxy]-2,3-dihydro-benzo[1,4]oxazin-4-yl}-nicotinonitrile]
8 | 0.346 | – | COc1ncc(N2CCOc3ccc(O[C@H]4CCN(C(=O)C5CCC(OC)CC5)C4)cc32)cc1C#N (single isomer, unassigned) [Example D36]
9 | 0.415 | – | COc1ncc(N2CCOc3ccc(O[C@H]4CCN(C(=O)C5CCN(C)CC5)C4)cc32)cc1C#N [Example D14, 2-Methoxy-5-{6-[(S)-1-(1-methyl-piperidine-4-carbonyl)-pyrrolidin-3-yloxy]-2,3-dihydro-benzo[1,4]oxazin-4-yl}-nicotinonitrile]
10 | – | 0.0155 | [2H]C1([2H])COc2ccc(O[C@H]3CCN(C(=O)c4cn(C)cn4)C3)cc2N1c1cnc(OC)c(C#N)c1 [Example B30, 2-Methoxy-5-{6-[(S)-1-(1-methyl-1H-imidazole-4-carbonyl)-pyrrolidin-3-yloxy]-3,3-dideutero-2,3-dihydro-benzo[1,4]oxazin-4-yl}-nicotinonitrile]
11 | > 9.1 | – | COc1ncc(N2CCOc3ccc(O[C@H]4CCN(C(=O)c5cnon5)C4)cc32)cc1C#N [Example C7, 5-{6-[(S)-1-(Furazan-3-carbonyl)-pyrrolidin-3-yloxy]-2,3-dihydro-benzo[1,4]oxazin-4-yl}-2-methoxy-nicotinonitrile]
12 | 0.243 | – | CN(C)c1cc(N2CCOc3ccc(O[C@H]4CCN(C(=O)C5CCOCC5)C4)cc32)cnc1S(C)(=O)=O [Example B78, {(S)-3-[4-(5-Dimethylamino-6-methanesulfonyl-pyridin-3-yl)-3,4-dihydro-2H-benzo[1,4]oxazin-6-yloxy]-pyrrolidin-1-yl}-(tetrahydro-pyran-4-yl)-methanone]
13 | 0.236 | – | COc1ncc(N2CCOc3ccc(O[C@H]4CCN(C(=O)C5CCOCC5)C4)cc32)cc1C#N [Example D4, 2-Methoxy-5-{6-[(S)-1-(tetrahydro-pyran-4-carbonyl)-pyrrolidin-3-yloxy]-2,3-dihydro-benzo[1,4]oxazin-4-yl}-nicotinonitrile]

Second part, the molecule before the results:

Row | Structure (SMILES) | IC50 [1] [µM] | IC50 [2] [µM]
14 | COCc1ccc(N2CCOc3ccc(O[C@H]4CCN(C(=O)C5CCOCC5)C4)cc32)cn1 [Example A20, {(S)-3-[4-(6-Methoxymethyl-pyridin-3-yl)-3,4-dihydro-2H-benzo[1,4]oxazin-6-yloxy]-pyrrolidin-1-yl}-(tetrahydro-pyran-4-yl)-methanone] | > 9.1 | –
15 | CCC(=O)N1CC[C@H](Oc2ccc3c(c2)N(c2cncc(C(F)(F)F)c2)CCO3)C1 [Example A38, 1-{(S)-3-[4-(5-Trifluoromethyl-pyridin-3-yl)-3,4-dihydro-2H-benzo[1,4]oxazin-6-yloxy]-pyrrolidin-1-yl}-propan-1-one] | 0.343 | 0.064
16 | COc1ncc(N2CCOc3ccc(O[C@H]4CCN(C(=O)[C@@H]5CCN(C)C5)C4)cc32)cc1C#N [L, 2-Methoxy-5-{6-[(S)-1-((R)-1-methyl-pyrrolidine-3-carbonyl)-pyrrolidin-3-yloxy]-2,3-dihydro-benzo[1,4]oxazin-4-yl}-nicotinonitrile] | 0.538 | 0.013
17 | Cc1ncc(N2CCOc3ccc(O[C@H]4CCN(C(=O)C5CCOCC5)C4)cc32)cc1[N+](=O)[O-] [Example A4, {(S)-3-[4-(6-Methyl-5-nitro-pyridin-3-yl)-3,4-dihydro-2H-benzo[1,4]oxazin-6-yloxy]-pyrrolidin-1-yl}-(tetrahydro-pyran-4-yl)-methanone] | > 9.1 | –
18 | CCC(=O)N1CC[C@H](Oc2ccc3c(c2)N(c2ccc(OC)c(S(=O)(=O)N4CCOCC4)c2)CCO3)C1 [Example A25, 1-((S)-3-{4-[4-Methoxy-3-(morpholine-4-sulfonyl)-phenyl]-3,4-dihydro-2H-benzo[1,4]oxazin-6-yloxy}-pyrrolidin-1-yl)-propan-1-one] | 5.75 | –
19 | CCC(=O)N1CC[C@H](Oc2ccc3c(c2)N(c2ccc(OC)c(S(=O)(=O)N4CCN(C)CC4)c2)CCO3)C1 [Example A27, 1-((S)-3-{4-[4-Methoxy-3-(4-methyl-piperazine-1-sulfonyl)-phenyl]-3,4-dihydro-2H-benzo[1,4]oxazin-6-yloxy}-pyrrolidin-1-yl)-propan-1-one] | > 9.1 | –
20 | O=C(C1CCOCC1)N1CC[C@H](Oc2ccc3c(c2)N(c2ccnc(C(F)(F)F)c2)CCO3)C1 [Example A21, (Tetrahydro-pyran-4-yl)-{(S)-3-[4-(2-trifluoromethyl-pyridin-4-yl)-3,4-dihydro-2H-benzo[1,4]oxazin-6-yloxy]-pyrrolidin-1-yl}-methanone] | 8.43 | –
21 | COc1ncc(N2CCOc3ccc(N[C@H]4CCN(C(=O)C5CCOCC5)C4)cc32)cc1C#N [Y, 2-Methoxy-5-{6-[(S)-1-(tetrahydro-pyran-4-carbonyl)-pyrrolidin-3-ylamino]-2,3-dihydro-benzo[1,4]oxazin-4-yl}-nicotinonitrile] | 1.92 | –
